Measurements from PubChem BioAssay (NCI).
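Cultured in 96-well plates, cells were exposed to test compound for 48 hours across five concentrations. The concentration for full growth arrest is given as TGI.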

Assays:
Experiment in all cases: DTP human tumour cell line panel, 48 h
[1] = system: LXFL 529 NSCLC
[2] = system: LOX IMVI melanoma
[3] = system: UACC-62 melanoma
[4] = system: KM12 colon
[5] = system: SF-539 CNS
[6] = system: NCI-H23 lung
[7] = system: HCT-15 colon
[8] = system: NCI-H226 lung
[9] = system: UACC-257 melanoma
[10] = system: UO-31 renal
[11] = system: KM20L2 colon
[12] = system: SK-OV-3 ovarian
[13] = system: EKVX NSCLC
[14] = system: HCT-116 colon
[15] = system: DMS 273 small cell lung
[16] = system: NCI-H460 lung
[17] = system: ACHN renal
[18] = system: OVCAR-4 ovarian
[19] = system: NCI-H522 lung
[20] = system: SK-MEL-5 melanoma
[21] = system: SK-MEL-2 melanoma
[22] = system: SF-295 CNS
[23] = system: OVCAR-8 ovarian
[24] = system: 786-0 renal
[25] = system: TK-10 renal
[26] = system: M14 melanoma
[27] = system: K-562 leukemia
[28] = system: HCC-2998 colon
[29] = system: HOP-92 NSCLC
[30] = system: SNB-78 CNS
[31] = system: U251 CNS
[32] = system: COLO 205 colon
[33] = system: RPMI-8226 leukemia
[34] = system: MALME-3M melanoma
[35] = system: HOP-62 NSCLC
[36] = system: CAKI-1 renal
[37] = system: A498 renal
[38] = system: OVCAR-5 ovarian
[39] = system: SNB-75 CNS
[40] = system: HT29 colon
[41] = system: OVCAR-3 ovarian
[42] = system: IGROV1 ovarian
[43] = system: RXF 393 renal
[44] = system: DMS 114 small cell lung
[45] = system: SW-620 colon
[46] = system: XF 498 CNS
[47] = system: SK-MEL-28 melanoma
[48] = system: M19-MEL melanoma
[49] = system: HOP-18 NSCLC
[50] = system: SF-268 CNS
[51] = system: SN12C renal
[52] = system: SNB-19 CNS
[53] = system: A549 NSCLC
[54] = system: HL-60(TB) leukemia
[55] = system: DLD-1 colon

CC(=O)C1C(=O)NC(=O)C1=O (stereo not given)
TGI [1]: > 100 µM | TGI [2]: > 100 µM | TGI [3]: > 100 µM | TGI [4]: > 100 µM | TGI [5]: > 100 µM | TGI [6]: > 100 µM | TGI [7]: > 100 µM | TGI [8]: > 100 µM | TGI [9]: > 100 µM | TGI [10]: > 100 µM | TGI [11]: > 100 µM | TGI [12]: > 100 µM | TGI [13]: > 100 µM | TGI [14]: > 100 µM | TGI [15]: > 100 µM | TGI [16]: > 100 µM | TGI [17]: > 100 µM | TGI [18]: > 100 µM | TGI [19]: > 100 µM | TGI [20]: > 100 µM | TGI [21]: > 100 µM | TGI [22]: > 100 µM | TGI [23]: > 100 µM | TGI [24]: > 100 µM | TGI [25]: > 100 µM | TGI [26]: > 100 µM | TGI [27]: > 100 µM | TGI [28]: > 100 µM | TGI [29]: > 100 µM | TGI [30]: > 100 µM | TGI [31]: > 100 µM | TGI [32]: > 100 µM | TGI [33]: > 100 µM | TGI [34]: > 100 µM | TGI [35]: > 100 µM | TGI [36]: > 100 µM | TGI [37]: > 100 µM | TGI [38]: > 100 µM | TGI [39]: > 100 µM | TGI [40]: > 100 µM | TGI [41]: > 100 µM | TGI [42]: > 100 µM | TGI [43]: > 100 µM | TGI [44]: > 100 µM | TGI [45]: > 100 µM | TGI [46]: > 100 µM | TGI [47]: > 100 µM | TGI [48]: > 100 µM | TGI [49]: > 100 µM | TGI [50]: > 100 µM | TGI [51]: > 100 µM | TGI [52]: > 100 µM

CC1=C(C(=O)NCc2ccccc2)C(c2ccc([N+](=O)[O-])cc2)C(C(=O)NCc2ccccc2)=C(C)N1
TGI [1]: > 100 µM | TGI [53]: > 100 µM | TGI [2]: 44.1 µM | TGI [3]: 64.6 µM | TGI [4]: > 100 µM | TGI [5]: > 100 µM | TGI [6]: > 100 µM | TGI [7]: > 100 µM | TGI [8]: > 100 µM | TGI [9]: > 100 µM | TGI [10]: > 100 µM | TGI [11]: 54 µM | TGI [13]: > 100 µM | TGI [14]: 60.6 µM | TGI [15]: > 100 µM | TGI [16]: > 100 µM | TGI [17]: 89.7 µM | TGI [18]: 47.9 µM | TGI [19]: > 100 µM | TGI [20]: > 100 µM | TGI [21]: > 100 µM | TGI [22]: > 100 µM | TGI [23]: > 100 µM | TGI [24]: > 100 µM | TGI [25]: > 100 µM | TGI [26]: 48.5 µM | TGI [27]: > 100 µM | TGI [54]: 49.3 µM | TGI [28]: > 100 µM | TGI [29]: 73.6 µM | TGI [30]: > 100 µM | TGI [31]: > 100 µM | TGI [32]: 83.5 µM | TGI [34]: > 100 µM | TGI [35]: > 100 µM | TGI [36]: > 100 µM | TGI [37]: > 100 µM | TGI [38]: 93.5 µM | TGI [39]: > 100 µM | TGI [40]: 33.9 µM | TGI [41]: > 100 µM | TGI [42]: > 100 µM | TGI [43]: 86.5 µM | TGI [44]: > 100 µM | TGI [45]: > 100 µM | TGI [55]: > 100 µM | TGI [46]: > 100 µM | TGI [47]: > 100 µM | TGI [48]: 52.7 µM | TGI [49]: > 100 µM | TGI [50]: > 100 µM | TGI [51]: > 100 µM | TGI [52]: > 100 µM
